{
  "source": "patent US7553826B2",
  "about": "“Cytarabine monophosphate prodrugs” (Metabasis Therapeutics, Inc., priority 2002, dated 2009)",
  "key": {"[1]": {"assay": "Single dose i.p. bolus liver levels / liver targeting in mice", "protocol": "At specified times post injection, mice were anesthetized and exsanguinated via cardiac puncture. The whole liver was removed, and snap-frozen in liquid nitrogen, and homogenized using a Polytron homogenizer PT 10/35 (Brinkmann Instruments, Westbury, N.Y.) in 3 volumes of 10% (v/v) perchloric acid (PCA). After a 5 min centrifugation at 2,500×g, 1 mL of supernatant was neutralized using 0.3 mL 3 M KOH/3 M KHCO3 and mixed thoroughly. Samples were then centrifuged for 5 minutes and resulting supernatants were treated with periodate in order to remove endogenous ribonucleotides which otherwise might interfere with araCTP detection. […] Resulting samples were analyzed by HPLC as described below.\nTo measure bone marrow araCTP, the bone marrow samples were flushed from the marrow cavities of femurs with 1.2 ml saline into pre-weighed Eppendorf tubes. After centrifugation for 20-30 seconds (Eppendorf microfuge, 14,000 rpm) and removal of the supernatant, 12 volumes of 3% PCA (v/v) were added to the bone marrow cell pellets. Samples were then vortexed until the pellet was well dissolved and centrifuged as above for 10 min. Ninety μL of extracted supernatant was neutralized to pH 7-8 using 30 μL 1 M KOH/1 M KHCO3 and again centrifuged. Resulting supernatants were periodate-treated as above.\nSamples (50 μL) were injected onto the column in 70% 10 mM ammonium phosphate buffer and 30% 1 M ammonium phosphate buffer, both at pH 3.5 and containing 6% ethanol. […] A standard curve was prepared by adding known amounts of araCTP into PCA extracts from control liver or bone marrow prior to neutralizing, and preparing HPLC samples accordingly.\nTo obtain plasma, blood was transferred to heparinized micro-collection tubes and centrifuged in an Eppendorf microfuge at 14,000 rpm for 2 minutes. Resulting plasma was collected, placed on dry ice, and subsequently stored at −20° C. On the day of analysis, proteins were precipitated by adding 1 mL acetonitrile to 100 μL of plasma. After 10 min centrifugation (Eppendorf microfuge, 14,000 rpm), the supernatant was removed and dried in a Savant SpeedVac Plus SC110A. Samples were reconstituted with 110 μL of mobile phase buffer (20 mM KH2PO4, pH 4.5), sonicated for 5 min, and centrifuged for 30 seconds. […] AraC and prodrugs were detected by absorbance at 280 nm and quantitated using standard curves obtained with spiked plasma samples processed as above.\nResults are expressed as mean±standard error of the mean. Data were analyzed by repeated measures ANOVA, followed by the Tukey HSD post-hoc test for comparisons at individual time points when appropriate. A p-value of less than 0.05 was considered statistically significant. Dotted lines in figures indicate LOQ (limit of quantitation) using the indicated HPLC method.\n(§1) In those studies, liver, plasma and bone marrow samples were obtained at necropsy to evaluate liver targeting.\n(§2) Results are expressed as mean±standard error of the mean. When appropriate, AUC was calculated from time zero to the last time-point of the study. Liver targeting indices (LTIs) were calculated by dividing the liver araCTP AUC by the AUC for plasma araC (plasma LTI) or by the AUC for bone marrow araCTP (bone marrow LTI) for each compound. For the continuous infusion studies, the steady state araCTP levels were divided by the steady state plasma araC levels."}, "[2]": {"assay": "Liver araCTP and liver targeting with continuous i.v. infusion in rats", "source_text": "A saline filled blunt PE-50 tubing catheter (Intramedic, Becton Dickinson, Sparks, Md.) was inserted into the jugular vein, exteriorized between the scapulae and connected to a swivel-tethering constant infusion system (Lomir Biomedical, Inc., Malone, N.Y. and Harvard Apparatus, Inc., South Natick, Mass.). The tubing was filled with heparinized saline and sealed, and the animals allowed to recover for one to seven days.\nAfter the various durations of infusion the animals were anesthetized by intra-catheter injections of the anesthetic mix described above. Blood samples were obtained via cardiac puncture using a 23-gauge needle attached to a heparin coated 3 cc syringe.\nas §1, §2"}, "[3]": {"settings": "rats, 200 mg CE/kg/day continuous intravenous infusion"}},
  "note": "“And” between values parts separate entries of the source, which are not always exact repeats. Equal entries are not always repeated.",
  "data": [
    {"smiles": "Nc1ccn([C@@H]2O[C@H](CO[P@@]3(=O)OCC[C@@H](c4ccncc4)O3)[C@@H](O)[C@@H]2O)c(=O)n1", "note": "[Compound A, 2(1H)-Pyrimidinone, 4-amino-1-[5-O-[(2R,4S)-2-oxido-4-(4-pyridinyl)-1,3,2-dioxaphosphorinan-2-yl]-β-D-arabinofuranosyl]]", "values": [
      {"measurement": "Liver araCTP Peak @ 1 hr", "setting": "[1]; Mouse, 100 mg (cytarabine equivalents)/kg single IP injection", "result": "96 nmol/g and 70 nmol/g"},
      {"measurement": "LTI (Liver/plasma)", "setting": "[1]; Mouse, 100 mg CE/kg single IP, liver araCTP AUC / plasma araC AUC", "result": "27 nmol/g/μM and 19.5 nmol/g/μM"},
      {"measurement": "reduction of peripheral exposure (liver targeting)", "setting": "[1]; administered intraperitoneally", "result": "~20", "unit": "fold"},
      {"measurement": "liver araCTP levels relative to Compound B", "setting": "[1]; mice, bolus i.p. injection", "result": "~2", "unit": "fold"},
      {"measurement": "plasma araC levels relative to Compound B", "setting": "[1]; mice, bolus i.p. injection", "result": "~2", "unit": "fold"},
      {"measurement": "liver araCTP peak at 60 minutes post injection", "setting": "[1]; mice, single i.p. bolus, 100 mg/kg CE", "result": "69.89 ± 6.37", "unit": "nmol/g"},
      {"measurement": "reduction of peripheral exposure (liver targeting)", "setting": "[2]; administered by continuous intravenous infusion", "result": "~10", "unit": "fold"},
      {"measurement": "LTI @ 24 hrs (Liver/plasma)", "setting": "[2]; [3]", "result": 7.5, "unit": "nmol/g/μM"},
      {"measurement": "Liver araCTP 24 hr", "setting": "[2]; [3]", "result": 12.0, "unit": "nmol/g"},
      {"measurement": "Liver araCTP @ 4 hr", "setting": "[2]; [3]", "result": 12.8, "unit": "nmol/g"},
      {"measurement": "Plasma Prodrug steady state", "setting": "[2]; [3]", "result": "40 to 50", "unit": "µM"},
      {"measurement": "Plasma araC steady state", "setting": "[2]; [3]", "result": "~1.6", "unit": "µM"},
      {"measurement": "steady state liver araCTP levels by 4 hours", "setting": "[2]; rats, continuous infusion 200 mg/kg/24 hours", "result": "12.84 ± 1.50", "unit": "nmol/g"},
      {"measurement": "average liver araCTP for the remaining 44 hours", "setting": "[2]; rats, continuous infusion 200 mg/kg/24 hours, 48 hr", "result": "13 ± 1", "unit": "nmol/g"}
    ]}
  ]
}
